What was measured:
λ DNA = settings: for staining / visualization of λ DNA molecules: λ DNA (48.5 kbp) tethered, 1×TE flow 100 μL/minute, 70 μM dye solution mixed 1:1, 20-fold diluted, FIGS. 2a-2c
Method: An inverted microscope (Olympus IX70, Tokyo, Japan) with 60× Olympus UPlanSApo oil immersion objectives illuminated with an LED light source (SOLA SM II light engine, Lumencor, Beaverton, Oreg., USA) was used. The light was passed through corresponding filter sets (Semrock, Rochester, N.Y., USA) to set the excitation and emission wavelengths. A maximum light intensity of 140 mW/cm^2 was measured. Fluorescence microscopic images were taken with an electron-multiplying charge-coupled device digital camera (Evolve EMCCD, Roper Scientific, Tucson, Ariz., USA) and stored in a 16-bit TIFF format using the software Micro-manager. For image processing and analysis, ImageJ software with Java plug-ins and python programs developed by the present inventors were utilized.
First, λ DNA (NCBI: NC_001416.1) was diluted to a concentration of 5 ng/μL (0.16 nM; base pair 7.76 μM) in 1×TE (10 mM Tris, 1 mM EDTA, pH 8.0) and mixed at a volume ratio of 1:1 with 70 μM of the Preparation Example solution. Next, the mixture was incubated at room temperature for 15 min and 20-fold diluted with 4% […] (β-ME) in 1×TE.
Separately, a flow chamber (5×10×0.1 mm (L×W×H)) was prepared by placing an acrylic support on an acid-cleaned cover slip, with the walls formed by double-sided tape, An NE-1000 syringe pump (New Era Pump Systems Inc., Wantagh, N.Y.) was used to control the buffer.
Thereafter, 40 μg/mL biotinylated bovine serum albumin (BSA) was injected and incubated at room temperature for 10 min, after which a dilution of 20 μg/mL Neutravidin in T50 solution (10 mM Tris, […], pH 8.0) was injected to the flow chamber and incubated at room temperature for 10 min.
Then, 1 μM of λ DNA overhang oligo (5′-p-[…]-Triethyleneglycol-biotin-3′) was loaded into the flow chamber and maintained at room temperature for 10 minutes. λ DNA, 200 U of T4 DNA ligase, and reaction buffer were added and incubated at room temperature for 30 minutes.
Stained DNA molecules were visualized under a continuous flow of 1×TE (100 μl/minute).

[1] = test system: polytene chromosomes from the Drosophila melanogaster salivary gland; settings: 2.5 μM in 4% β-ME; tangled and spread polytene chromosomes; FIG. 5a
Excerpt: For comparison with DAPI, which is conventionally used to visualize polytene chromosomes on a fluorescence microscope, the polytene chromosomes from the Drosophila melanogaster salivary gland were stained with the compound.
In brief, dissected salivary glands from third larvae of Drosophila melanogaster were fixed with a solution containing a 1:2:3 ratio of propionic acid, deionized water, and acetic acid on a positively charged coverslip. Then, the cells were located between a slide glass and the coverslip and then the individual cells were gently spread. After moving the coverslip back and forth on the slide glass, the spread cells were squashed for up to 15 minutes. Then, the slide glass and coverslip were slightly dipped into liquid nitrogen. Just after no more bubbles were generated, the cover slip was removed from the slide glass.

Excerpt for λ DNA genome: Python Program • ImageCompare.py: a library of functions, • seq2map.py: to convert a FASTA file into a A/T frequency in silico map wherein a selected sequence is represented in white for high frequency regions and in black for low frequency regions. • insilicoMapFolder.py: to scan and compare in silico image files and DNA images obtained through experiments with respect to all images in the folder, to search positions of sites having the highest cross-correlation coefficient, to convert the values, and to store the values in new record files. • sortView.py: to read record files obtained with the insilicoMapFolder.py, to compare signals, to search cross-correlation coefficients, and to visualize image comparison in a new window. • randomtiff.py: to generate random intensity tiff images
Cross-correlation (cc) coefficient values calculated by comparing the alignment of 20 molecular images of above three kinds of binding sequences (W, W4 and W9) with the genome. The control cross-correlation coefficient (hereinafter referred to as cc) was obtained by comparing the 100 computer-generated random sequences with the in silico images (***P<0.0001 for random-sequences paired t-test).

Compound | staining / visualization of λ DNA molecules (λ DNA) | fluorescent λ DNA image quality compared with DAPI (λ DNA; λ DNA images, FIG. 5b) | cross-correlation coefficient (cc) of 20 molecular images aligned with λ DNA genome (λ DNA genome; W, W4, W9 maps, Python program, FIG. 3b) | agreement of measured fluorescence intensity with in silico binding sequence profiles (W, W4, W9) (λ DNA genome; λ genome, FIG. 3a) | staining of polytene chromosomal DNA [1]
CN(C)CCCNC(=O)c1cc(NC(=O)c2cc(NC(=O)c3cc(NC(=O)c4cc(NC(=O)CCNC(=O)CCNC(=O)c5ccc(C(=O)[O-])c(-c6c7ccc(=[N+](C)C)cc-7oc7cc(N(C)C)ccc67)c5)cn4C)cn3C)cn2C)cn1C [Comparative Example 1, (5-carboxytetramethylrhodamine)-(β-alanine)2-(N-methylpyrrole)4-(3-(dimethylamino)propylamine), reference compound] | stained only in part AT-rich regions and bound undesired regions | – | – | – | –
CN(C)CCCNC(=O)c1cc(NC(=O)c2cc(NC(=O)c3cc(NC(=O)c4cc(NC(=O)CCNC(=O)c5cc(NC(=O)c6cc(NC(=O)c7cc(NC(=O)c8cc(NC(=O)CCNC(=O)CCNC(=O)c9ccc(-c%10c%11ccc(=[N+](C)C)cc-%11oc%11cc(N(C)C)ccc%10%11)c(C(=O)[O-])c9)cn8C)cn7C)cn6C)cn5C)cn4C)cn3C)cn2C)cn1C [Preparation Example, (5-carboxytetramethylrhodamine)-(β-alanine)2-(N-methylpyrrole)4-(β-alanine)-(N-methylpyrrole)4-(3-(dimethylamino)propylamine)] | visualized λ DNA molecules with sequence specificity as well as enhancing the intensity of the molecules | exhibits a clear backbone compared with DAPI-stained DNA | highest cc value for simple A/T frequency | agrees better with simple A/T frequency than W4 and W9 | clearly demonstrate band and interband patterns
(5-carboxytetramethylrhodamine)-(β-alanine)2-(N-methylpyrrole)4-(5-carboxytetramethylrhodamine) [Comparative Example 2, reference compound] | did not bind double-stranded DNA at all | – | – | – | –

Source: patent US11306074B2, “Chemical and method for analyzing DNA sequence by visualizing single-molecule DNA and use thereof” (SOGANG UNIVERSITY RESEARCH FOUNDATION, priority 2018, dated 2022)
